From paper PMC3857490, “Discovery of a metabolic alternative to the classical mevalonate pathway” (eLife, 2013) come the findings set out here.

What all share (assay): pyruvate kinase-lactate dehydrogenase coupled assay
For one series, the target named is T1, PMK from S. solfataricus (Saccharolobus solfataricus, UniProt Q97UL6).
T1 construct: gene SSO2988; full length, N-terminal thrombin-cleavable 8-His tag (pET28a), E. coli BL21(DE3)
T1 sequence (Q97UL6 1-323): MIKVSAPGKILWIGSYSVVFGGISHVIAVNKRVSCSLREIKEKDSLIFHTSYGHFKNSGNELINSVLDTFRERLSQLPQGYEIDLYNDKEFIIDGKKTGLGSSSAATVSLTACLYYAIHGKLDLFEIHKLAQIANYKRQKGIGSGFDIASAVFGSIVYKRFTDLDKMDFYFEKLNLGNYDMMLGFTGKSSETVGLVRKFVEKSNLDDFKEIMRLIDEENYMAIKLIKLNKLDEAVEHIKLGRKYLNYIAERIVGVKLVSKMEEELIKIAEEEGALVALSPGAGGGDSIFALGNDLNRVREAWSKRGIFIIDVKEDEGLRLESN
Type of series: biochemical. Particulars: co-substrate ATP; Ki from the fit of the substrate's own saturation curve (substrate inhibition); racemic (RS)-MVAP. An excerpt: (§1) pyruvate kinase-lactate dehydrogenase coupled assay on PMK from S. solfataricus

Another series deals with T2, MDD from A. thaliana (Arabidopsis thaliana, UniProt O23722).
T2 construct: gene MVD1; synthetic gene, thrombin-cleavable 9-His tag (pHIS9GW), E. coli BL21(DE3)
T2 sequence (O23722 1-412): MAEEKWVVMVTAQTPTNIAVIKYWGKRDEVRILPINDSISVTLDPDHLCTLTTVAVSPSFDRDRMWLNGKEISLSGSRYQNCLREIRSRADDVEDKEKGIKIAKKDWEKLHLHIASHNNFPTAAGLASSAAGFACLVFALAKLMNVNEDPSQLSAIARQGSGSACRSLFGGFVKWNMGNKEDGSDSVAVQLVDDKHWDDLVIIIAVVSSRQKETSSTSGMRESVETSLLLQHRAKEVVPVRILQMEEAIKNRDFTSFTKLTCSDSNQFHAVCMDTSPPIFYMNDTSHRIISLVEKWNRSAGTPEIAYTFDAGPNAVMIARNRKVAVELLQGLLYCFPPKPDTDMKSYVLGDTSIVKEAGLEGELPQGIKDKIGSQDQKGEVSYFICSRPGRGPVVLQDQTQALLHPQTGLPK
Type of series: biochemical. Particulars: co-substrate ATP; racemic (RS)-MVAPP. From the text:
pyruvate kinase-lactate dehydrogenase coupled assay on MDD from A. thaliana

Series [1] deals with T3, IPK from B. floridae (Branchiostoma floridae, UniProt A0A9J7KY69).
T3 construct: gene LOC118413305
T3 sequence (A0A9J7KY69 1-298): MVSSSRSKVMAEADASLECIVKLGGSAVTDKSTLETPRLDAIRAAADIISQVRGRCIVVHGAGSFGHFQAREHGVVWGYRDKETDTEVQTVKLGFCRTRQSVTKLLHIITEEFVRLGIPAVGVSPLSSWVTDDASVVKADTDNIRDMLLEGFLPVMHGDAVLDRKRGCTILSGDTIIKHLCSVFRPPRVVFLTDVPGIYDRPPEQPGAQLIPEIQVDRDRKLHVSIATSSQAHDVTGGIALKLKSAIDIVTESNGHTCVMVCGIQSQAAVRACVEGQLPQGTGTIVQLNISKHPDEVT
Type of series: biochemical. The note with it: co-substrate ATP; fit with substrate inhibition.

The next series addresses T4, IPK from T. adhaerens (Trichoplax adhaerens, UniProt B3RKZ8).
T4 construct: gene TRIADDRAFT_51825
T4 sequence (B3RKZ8 1-281): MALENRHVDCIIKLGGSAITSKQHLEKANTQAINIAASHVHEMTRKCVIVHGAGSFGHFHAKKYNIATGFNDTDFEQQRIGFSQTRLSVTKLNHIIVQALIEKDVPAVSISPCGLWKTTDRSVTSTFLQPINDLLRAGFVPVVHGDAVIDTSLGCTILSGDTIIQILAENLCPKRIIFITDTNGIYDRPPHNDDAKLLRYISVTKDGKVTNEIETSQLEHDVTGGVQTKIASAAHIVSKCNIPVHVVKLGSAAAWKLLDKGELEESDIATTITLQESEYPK
The series is classed as biochemical. Particulars: co-substrate ATP; four IP concentrations, 2-100 µM.

The next series addresses T5, IPK from A. thaliana (Arabidopsis thaliana, UniProt Q8H1F7).
T5 construct: synthetic gene, thrombin-cleavable 9-His tag (pHIS9GW), E. coli BL21(DE3)
T5 sequence (Q8H1F7 1-332): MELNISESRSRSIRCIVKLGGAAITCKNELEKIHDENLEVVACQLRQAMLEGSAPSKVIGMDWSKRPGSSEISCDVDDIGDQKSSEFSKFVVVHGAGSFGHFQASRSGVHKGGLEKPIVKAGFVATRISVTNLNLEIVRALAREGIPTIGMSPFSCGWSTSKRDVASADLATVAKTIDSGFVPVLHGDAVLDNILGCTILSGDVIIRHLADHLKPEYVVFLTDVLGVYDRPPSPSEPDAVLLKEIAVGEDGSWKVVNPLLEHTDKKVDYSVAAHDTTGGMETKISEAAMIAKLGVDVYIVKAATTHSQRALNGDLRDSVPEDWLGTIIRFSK
The series is classed as biochemical. Particulars: co-substrate ATP; Ki from the fit of the substrate's own saturation curve (substrate inhibition); four IP concentrations, 2-100 µM.

The target of series [2] is T3, IPK from B. floridae. The series is classed as biochemical. Particulars: co-substrate ATP; Ki from the fit of the substrate's own saturation curve (substrate inhibition). An excerpt: pyruvate kinase-lactate dehydrogenase coupled assay on IPK from B. floridae
Substrate in series [3]: CC(O)(CCOP(=O)(O)O)CC(=O)O
Type of series: biochemical, Saccharolobus solfataricus. The note with it: co-substrate ATP; racemic (RS)-MVAP; fit with substrate inhibition.
Text: as §1

Substrate in series [4]: CC(O)(CCOP(=O)(O)O)CC(=O)O
The series is classed as biochemical, Roseiflexus castenholzii. Particulars: co-substrate ATP, racemic (RS)-MVAP, below the organism's growth temperature (50 C and above). From the text: pyruvate kinase-lactate dehydrogenase coupled assay on MPD from R. castenholzii (annotated MDD)

Regarding `CC(O)(CCOP(=O)(O)O)CC(=O)O` (racemic) [compound 3, phosphomevalonate], the “Ki (μM)” value at PMK from S. solfataricus is on record as 5500 (± 2200) μM.
With `CC(O)(CCOP(=O)(O)OP(=O)(O)O)CC(=O)O` (racemic) [compound 5, diphosphomevalonate], the Km at MDD from A. thaliana was 15.7 µM.
Take `C=C(C)CCOP(=O)(O)O` [compound 4, isopentenyl phosphate]: the Km at IPK from B. floridae [1] worked out at 13.3 µM; on IPK from T. adhaerens, 3.1 µM. For the same molecule, the “Ki (μM)” value on IPK from A. thaliana is reported as 522 (± 381) μM; on IPK from B. floridae [2], 2820 (± 1700) μM.

B1: PMK from S. solfataricus (Saccharolobus solfataricus P2) (protein)
chain: MIKVSAPGKILWIGSYSVVFGGISHVIAVNKRVSCSLREIKEKDSLIFHTSYGHFKNSGNELINSVLDTFRERLSQLPQGYEIDLYNDKEFIIDGKKTGLGSSSAATVSLTACLYYAIHGKLDLFEIHKLAQIANYKRQKGIGSGFDIASAVFGSIVYKRFTDLDKMDFYFEKLNLGNYDMMLGFTGKSSETVGLVRKFVEKSNLDDFKEIMRLIDEENYMAIKLIKLNKLDEAVEHIKLGRKYLNYIAERIVGVKLVSKMEEELIKIAEEEGALVALSPGAGGGDSIFALGNDLNRVREAWSKRGIFIIDVKEDEGLRLESN
notes: full length, N-terminal thrombin-cleavable 8-His tag (pET28a), E. coli BL21(DE3)
One may read the kcat as the number of substrate molecules converted per active site and unit of time at saturation. As a reminder, the kcat/Km is the turnover number divided by the Michaelis constant. Turning to B1, in series [3], the Km is listed as 23.1 (± 3.8) μM, the turnover number (kcat) worked out at 1.98 ± 0.1 s⁻¹ and the kcat/Km was determined as 90000 ± 10000 M⁻¹ s⁻¹.

B2: MPD from R. castenholzii (annotated MDD) (Roseiflexus castenholzii DSM 13941) (protein)
chain: MYHRPLERMPGLATAIPAPYADLVERMATADADLRAALRAHGLTWEEYPDLTGAARERGAAAALAYPMQGVLKYHGLSDWDYRIAFLPSVSLCNDAGHTLTLVEFDPDLATDCATINGHVARGRELERVRQSLDAIRAASGATVRARVMSRNVTRGTRMGKGLGSSAAASAALALAAIAALYGDEAAANRRLVSCMARLLAGSGCRSAAGGCSIWFSSPGMPHEDSFAVRLDDAGQLDDVRLITVPLDSRIGLKTEQAHLDAPGSALFRCWMLSRRDEALACIAAARTGDWRTLGQWAELDSMRLHGITMSGSLENKLIGWEPENIVLFRMCNDLRSSGVPVYCSTDTGPTAVFITHRDYEDAVVSAIEGLGLSLEAIRGRVAGPARLVDIAWAGGELGVAD
notes: synthetic gene, 9-His tag removed with thrombin, E. coli BL21(DE3), Mono Q and Superdex 200
On to B2, for which, in series [4], the Km is listed as 152 (± 38) μM, the catalytic constant (kcat) is 1.7 ± 0.1 s⁻¹ and the kcat/Km was determined as 11000 ± 3000 M⁻¹ s⁻¹.
